The subject of assay [1] is plasma deficient in coagulation factor VIII. Description: Thrombin generation assay in plasma deficient in coagulation factor VIII. Type of assay: biochemical, human. Here is the method: FIG. 20: Plasma deficient in coagulation factor VIII was spiked with cyclodextrin OKL-1111 (A), OKL-1180 (B), and OKL-1187 (C) at the indicated concentrations.
(§1) The Calibrated Automated Thrombogram® assays the generation of thrombin in clotting plasma using a microtiter plate reading fluorometer (Fluoroskan Ascent, ThermoLab systems, Helsinki, Finland) and Thrombinoscope® software (Thrombinoscope BV, Maastricht, The Netherlands). The assay was carried out as described by Hemker et al. (Pathofysiol. IIaemost. Thromb. 2003, 33, 4-15), and the Thrombinoscope® manual. Coagulation was triggered by recalcification in the presence of 1 or 5 pM recombinant human tissue factor (Innovin®, Siemens, Marburg, Germany), 4 μM phospholipids, and 417 μM fluorogenic substrate Z-Gly-Gly-Arg-AMC (Bachem, Bubendorf, Switzerland). Fluorescence was monitored using the Fluoroskan Ascent fluorometer (ThermoLabsystems, Helsinki, Finland), and the lag time, peak thrombin, velocity index and area under the curve (ETP) were calculated using the Thrombinoscope® software (Thrombinoscope BV).

Assay [2] has as its system plasma deficient in coagulation factor IX. Kind of assay: Thrombin generation assay in plasma deficient in coagulation factor IX. The format is biochemical, human. Here is the method: as §1
Assay [3] has as its system thrombin generation in pooled normal plasma spiked with anticoagulants. Description: Thrombin generation assay in pooled normal plasma spiked with anticoagulants. The settings on record: for effect on the anticoagulant effect of apixaban: apixaban 60 ng/ml; for effect on the anticoagulant effect of apixaban / effect on the anticoagulant effect of dabigatran / effect on the anticoagulant effect of edoxaban / effect on the anticoagulant effect of rivaroxaban: cyclodextrin 100 μM, 1 pM TF; for effect on the anticoagulant effect of dabigatran: dabigatran 100 ng/ml; for effect on the anticoagulant effect of edoxaban: edoxaban 60 ng/ml; for effect on the anticoagulant effect of rivaroxaban: rivaroxaban 100 ng/ml. Type of assay: biochemical, human. Here is the method: (§2) FIGS. 3-8, 12, 14-19 and 22-27: Pooled normal plasma was spiked with cyclodextrins (100 μM, unless otherwise indicated) and anticoagulants. The concentrations of the anticoagulants were 100 ng/ml for dabigatran (A), 100 ng/ml for rivaroxaban (B), 60 ng/ml for apixaban (C), 60 ng/ml for edoxaban (D). The plasmas were subjected to thrombin generation analysis as described in the Materials and Methods section with 1 pM tissue factor (TF) as initiator of coagulation.
FIG. 9: Pooled normal plasma was spiked with OKL-1111 (100 μM, unless otherwise indicated (A)) and anticoagulants (B-E). The concentrations of the anticoagulants were 100 ng/ml for dabigatran (B), 100 ng/ml for rivaroxaban (C), 60 ng/ml for apixaban (D), 60 ng/ml for edoxaban (E). The plasmas were subjected to thrombin generation analysis as described in the Materials and Methods section with 1 pM tissue factor (TF) as initiator of coagulation.
FIG. 10: Pooled normal plasma was spiked with OKL-1111 (100 μM) and anticoagulants (A-F). The concentrations of the anticoagulants were 2 μg/ml for fondaparinux (A), 0.4 U/ml for nadroparin (B), 0.1 U/ml for tinzaparin (C), 0.03 U/ml for unfractionated heparin (UFH) (D), 0.5 U/ml for hirudin (E) and 10 μg/ml for bivalirudin (F). The plasmas were subjected to thrombin generation analysis as described in the Materials and Methods section with 1 pM tissue factor (TF) as initiator of coagulation.
as §1

For assay [4], the system named is thrombin generation in pooled normal plasma. Description: Calibrated Automated Thrombogram thrombin generation assay in pooled normal plasma. The settings on record: no anticoagulant; cyclodextrin 100 μM unless otherwise indicated; 1 pM TF. The format is biochemical, human. Here is the method:
as §2, §1
Thrombin generation analyses were performed in pooled normal plasma with and without the addition of anticoagulants.

The subject of assay [5] is mice anticoagulated with rivaroxaban. Description: In vivo saphenous vein bleeding model in mice anticoagulated with rivaroxaban. The procedure:
FIG. 29: In vivo analysis of procoagulant potential of OK-1111 and OKL-1147. Except for controls, animals were treated with rivaroxaban for 4 days and cyclodextrins were administered 5 min prior bleeding assay.
All animal protocols were approved by the Institutional Animal Care and Use Committee of the University of North Carolina. C57BL6/J mice were purchased from Charles Rivers Laboratories (Willmington, Mass.). Bleeding studies were done essentially as previously described Pastoft et al. (Haemophilia 2012; 18:782-8). Mice were anesthetized with isoflurane throughout all procedures. The hair on the ventral side of both hind limbs was removed. The animals were placed supine on a temperature and ECG monitoring board. The paws were gently restrained by looping soft polyethylene tubing around them and attaching the tubing to the ECG board. The skin on the left and right ventral hind limb was incised which exposes a length of the saphenous neurovascular bundle; the bundle was covered with normal saline to prevent drying. To assess haemostasis, the right saphenous vein was transected by piercing it with a 23-G needle followed by a longitudinal incision made in the distal portion of the vessel. Blood was gently wicked away until haemostasis occurred. The clot was then removed to restart bleeding and the blood was again wicked away until haemostasis occurs again. Clot disruption was repeated after every incidence of haemostasis for 30 minutes. Mice were fed chow that contained 0.1 mg rivaroxaban per g of chow. The mice were on this diet for 4 days to allow them to reach a steady state. Cyclodextrins were administered by a tail vein injection 5 minutes before the start of the bleeding assay. Two parameters were measured: 1) the number of times that haemostasis occurs in a 30 minute period, and 2) the time required for each haemostasis.

Assay [6] has as its system plasma of a hemophilia A patient containing anti-FVIII antibodies. Kind of assay: Thrombin generation in plasma of a hemophilia A patient with anti-factor VIII antibodies. Type of assay: biochemical, human. The settings on record: anti-FVIII antibodies 50 BU. The procedure:
FIG. 28: Effect of OKL-1111 (A), OKL-1180 (B) and OKL-1187 (C) on coagulation in plasma of a hemophilia A patient with anti-factor VIII antibodies. BU=Bethesda Units.
as §1
The patient had developed antibodies against factor VIII prior to plasma withdrawal. The plasma contained high levels of anti-FVIII antibodies (50 BU).

The values that follow come from patent US10813944B2, “Cyclodextrins as procoagulants” (STICHTING SANQUIN BLOEDVOORZIENING, priority 2016, dated 2020).

For `O=C(O)CCCCCCSCC1OC2OC3C(CO)OC(OC4C(CO)OC(OC5C(CO)OC(OC6C(CO)OC(OC7C(CO)OC(OC8C(CO)OC(OC1C(O)C2O)C(O)C8O)C(O)C7O)C(O)C6O)C(O)C5O)C(O)C4O)C(O)C3O` (stereo not shown) [OKL-1188], the “procoagulant effect in factor VIII deficient plasma” value in assay [1] is listed as “procoagulant effects”. Besides, in assay [2], the “procoagulant activity in factor IX deficient plasma” value is on record as “procoagulant activity”. Also, in assay [3], the “effect on the anticoagulant effect of apixaban” value (“effect … of apixaban” below) is given as “antagonized”, the “effect on the anticoagulant effect of dabigatran” value (“effect … of dabigatran” for short) is “antagonized”, the “effect on the anticoagulant effect of edoxaban” value (“effect … of edoxaban” below) is listed as “antagonized” and the “effect on the anticoagulant effect of rivaroxaban” value (“effect … of rivaroxaban” for short) is recorded as “antagonized”. Also, the “procoagulant effect in normal plasma” value in assay [4] is “strong procoagulant effect”.

For `NCC1OC2OC3C(CN)OC(OC4C(CN)OC(OC5C(CN)OC(OC6C(CN)OC(OC7C(CN)OC(OC8C(CN)OC(OC9C(CN)OC(OC1C(O)C2O)C(O)C9O)C(O)C8O)C(O)C7O)C(O)C6O)C(O)C5O)C(O)C4O)C(O)C3O` (stereo not shown) [OKL-1147, reference compound], the clotting times result in assay [5] (mice fed rivaroxaban for 4 days, cyclodextrin by tail vein injection 5 min before bleeding assay, OKL-1111 dose expected to give 25 μM in plasma) is given as “without any significant effect”. For the same compound, in assay [4], the “procoagulant effect in normal plasma” value was “no procoagulant effect”.

As for `OCCCCSCC1OC2OC3C(CSCCCCO)OC(OC4C(CSCCCCO)OC(OC5C(CSCCCCO)OC(OC6C(CSCCCCO)OC(OC7C(CSCCCCO)OC(OC8C(CSCCCCO)OC(OC9C(CSCCCCO)OC(OC1C(O)C2O)C(O)C9O)C(O)C8O)C(O)C7O)C(O)C6O)C(O)C5O)C(O)C4O)C(O)C3O` (stereo not shown) [OKL-1174], in assay [1], the “procoagulant effect in factor VIII deficient plasma” value was “procoagulant effects”. For the same compound, the “procoagulant activity in factor IX deficient plasma” value in assay [2] is given as “procoagulant activity”. Besides, the “procoagulant effect in plasma containing anticoagulants (not specified / NOACs)” value in assay [3] is reported as “strong procoagulant effects”. In addition, the “procoagulant effect in normal plasma” value in assay [4] is recorded as “strong procoagulant effects”.

As for `OCCCCSCC1OC2OC3C(CO)OC(OC4C(CO)OC(OC5C(CO)OC(OC6C(CO)OC(OC7C(CO)OC(OC8C(CO)OC(OC9C(CO)OC(OC1C(O)C2O)C(O)C9O)C(O)C8O)C(O)C7O)C(O)C6O)C(O)C5O)C(O)C4O)C(O)C3O` (stereo not shown) [OKL-1191], the “procoagulant effect in factor VIII deficient plasma” value in assay [1] is “procoagulant effects”. For the same compound, the “procoagulant activity in factor IX deficient plasma” value in assay [2] is “procoagulant activity”. Also, in assay [3], the “effect … of apixaban” value is reported as “Antagonized”, the “effect … of dabigatran” value is given as “Antagonized”, the “effect … of edoxaban” value is reported as “Antagonized” and the “effect … of rivaroxaban” value is “Antagonized”. For the same compound, the “procoagulant effect in normal plasma” value in assay [4] was “Strong Procoagulant Activity”.

For `OCCCCSCC1OC2OC3C(CO)OC(OC4C(CO)OC(OC5C(CO)OC(OC6C(CO)OC(OC7C(CO)OC(OC8C(CO)OC(OC1C(O)C2O)C(O)C8O)C(O)C7O)C(O)C6O)C(O)C5O)C(O)C4O)C(O)C3O` (stereo not shown) [OKL-1189], the “procoagulant effect in factor VIII deficient plasma” value in assay [1] is on record as “procoagulant effects”. The “procoagulant activity in factor IX deficient plasma” value in assay [2] was “procoagulant activity”. Also, in assay [3], the “effect … of apixaban” value was “strongly antagonized”, the “effect … of dabigatran” value was “strongly antagonized”, the “effect … of edoxaban” value is on record as “strongly antagonized” and the “effect … of rivaroxaban” value is “strongly antagonized”. In assay [4], the “procoagulant effect in normal plasma” value was “strong procoagulant activity”.

On to `O=C(O)CCCCCCCSCC1OC2OC3C(CSCCCCCCCC(=O)O)OC(OC4C(CSCCCCCCCC(=O)O)OC(OC5C(CSCCCCCCCC(=O)O)OC(OC6C(CSCCCCCCCC(=O)O)OC(OC7C(CSCCCCCCCC(=O)O)OC(OC8C(CSCCCCCCCC(=O)O)OC(OC1C(O)C2O)C(O)C8O)C(O)C7O)C(O)C6O)C(O)C5O)C(O)C4O)C(O)C3O` (stereo not shown) [OKL-1180], for which, in assay [1], the “procoagulant effect in factor VIII deficient plasma” value is “procoagulant effects”. Besides, the “procoagulant activity in factor IX deficient plasma” value in assay [2] is recorded as “procoagulant activity”. In addition, the “procoagulant effect in normal plasma” value in assay [4] was “procoagulant activity”. Moreover, in assay [6], the “thrombin generation in hemophilia A patient plasma” value is “concentration-dependently stimulated thrombin generation”.

In the case of `O=C(NC[C@H]1CN(c2ccc(N3CCOCC3=O)cc2)C(=O)O1)c1ccc(Cl)s1` [rivaroxaban], the “number of clots in 30 minutes” value in assay [5] (mice fed rivaroxaban (0.1 mg per g of chow, 4 days), no cyclodextrin, non-anticoagulated about 20-25) is given as 10-13 clots. For the same compound, the bleeding time result in assay [5] (mice fed rivaroxaban versus non-anticoagulated mouse) was “roughly doubled”.

For `O=C(O)CCCCCSCC1OC2OC3C(CSCCCCCC(=O)O)OC(OC4C(CSCCCCCC(=O)O)OC(OC5C(CSCCCCCC(=O)O)OC(OC6C(CSCCCCCC(=O)O)OC(OC7C(CSCCCCCC(=O)O)OC(OC1C(O)C2O)C(O)C7O)C(O)C6O)C(O)C5O)C(O)C4O)C(O)C3O` (stereo not drawn) [OKL-1187, Alpha-per-S—C6-acid], the “procoagulant effect in factor VIII deficient plasma” value in assay [1] was “procoagulant effects”. Moreover, in assay [3], the “effect … of apixaban” value was “strongly antagonized”, the “effect … of dabigatran” value is “strongly antagonized”, the “effect … of edoxaban” value was “strongly antagonized” and the “effect … of rivaroxaban” value is “strongly antagonized”. Further, in assay [4], the “procoagulant effect in normal plasma” value is listed as “very strong procoagulant effect”. Further, the “thrombin generation in hemophilia A patient plasma” value in assay [6] was “concentration-dependently stimulated thrombin generation”.
